Assay results taken from ChEMBL document CHEMBL1629541, “Synthesis and structure-activity relationships of aza- and diazabiphenyl analogues of the antitubercular drug (6S)-2-nitro-6-{[4-(trifluoromethoxy)benzyl]oxy}-6,7-dihydro-5H-imidazo[2,1-b][1,3]oxazine (PA-824)” (J Med Chem, 2010).
In brackets after ≈: the same amount, converted by molar mass.

Key:
physchem = settings: water, pH 7
Description: Solubility of the compound in water at pH 7.0 by HPLC

[1] = system: Mycobacterium tuberculosis; assay: microbe, parasite or virus in culture; settings: H37Rv
Description: Antitubercular activity against Mycobacterium tuberculosis H37Rv by LORA method

[2] = system: Mycobacterium tuberculosis; assay: microbe, parasite or virus in culture; settings: H37Rv; remark: listed apart in the source

Structure (SMILES)	solubility (physchem)	MIC [1]	MIC [2]
COc1ccc(-c2ccc(CO[C@@H]3COc4nc([N+](=O)[O-])cn4C3)cn2)cn1	51 µg/mL (≈ 133 µM)	7.3 µM (≈ 2.8 µg/mL)	0.24 µM (≈ 0.092 µg/mL)
N#Cc1ccc(-c2ccc(CO[C@@H]3COc4nc([N+](=O)[O-])cn4C3)cn2)cc1	2.9 µg/mL (≈ 7.68 µM)	6 µM (≈ 2.26 µg/mL)	0.18 µM (≈ 0.0679 µg/mL)
O=[N+]([O-])c1cn2c(n1)OC[C@@H](OCc1ccc(-c3ccc(C(F)(F)F)cc3)cn1)C2	2.3 µg/mL (≈ 5.47 µM)	3.4 µM (≈ 1.43 µg/mL)	0.04 µM (≈ 0.0168 µg/mL)
N#Cc1ccc(-c2ccc(CO[C@@H]3COc4nc([N+](=O)[O-])cn4C3)cc2)cn1	3 µg/mL (≈ 7.95 µM)	2.4 µM (≈ 0.906 µg/mL)	0.2 µM (≈ 0.0755 µg/mL)
O=[N+]([O-])c1cn2c(n1)OC[C@@H](OCc1cncc(-c3ccc(OC(F)(F)F)cc3)c1)C2	9.5 µg/mL (≈ 21.8 µM)	2.4 µM (≈ 1.05 µg/mL)	0.17 µM (≈ 0.0742 µg/mL)
O=[N+]([O-])c1cn2c(n1)OC[C@@H](OCc1cccc(-c3ccc(C(F)(F)F)cc3)n1)C2	5 µg/mL (≈ 11.9 µM)	2.9 µM (≈ 1.22 µg/mL)	0.29 µM (≈ 0.122 µg/mL)
COc1ccc(-c2cccc(CO[C@@H]3COc4nc([N+](=O)[O-])cn4C3)n2)cc1F	10 µg/mL (≈ 25 µM)	4.3 µM (≈ 1.72 µg/mL)	0.3 µM (≈ 0.12 µg/mL)
N#Cc1ccc(-c2cccc(CO[C@@H]3COc4nc([N+](=O)[O-])cn4C3)n2)cc1	24 µg/mL (≈ 63.6 µM)	10 µM (≈ 3.77 µg/mL)	0.48 µM (≈ 0.181 µg/mL)
O=[N+]([O-])c1cn2c(n1)OC[C@@H](OCc1ccc(-c3ccc(C(F)(F)F)nc3)nn1)C2	12 µg/mL (≈ 28.4 µM)	14 µM (≈ 5.91 µg/mL)	0.55 µM (≈ 0.232 µg/mL)
O=[N+]([O-])c1cn2c(n1)OC[C@@H](OCc1ccc(-c3ccc(OC(F)F)cc3)nn1)C2	1.3 µg/mL (≈ 3.1 µM)	7.5 µM (≈ 3.15 µg/mL)	0.17 µM (≈ 0.0713 µg/mL)
O=[N+]([O-])c1cn2c(n1)OC[C@@H](OCc1ccc(-c3ccc(Cl)c(OC(F)(F)F)c3)nc1)C2	0.22 µg/mL (≈ 0.467 µM)	2.4 µM (≈ 1.13 µg/mL)	0.18 µM (≈ 0.0847 µg/mL)
O=[N+]([O-])c1cn2c(n1)OC[C@@H](OCc1ccc(-c3ccc(F)cc3)nn1)C2	8.3 µg/mL (≈ 22.4 µM)	5.6 µM (≈ 2.08 µg/mL)	0.19 µM (≈ 0.0706 µg/mL)
O=[N+]([O-])c1cn2c(n1)OC[C@@H](OCc1cnc(-c3ccc(F)cc3)cn1)C2	8.9 µg/mL (≈ 24 µM)	2 µM (≈ 0.743 µg/mL)	0.085 µM (≈ 0.0316 µg/mL)
COc1ccc(-c2ccc(CO[C@@H]3COc4nc([N+](=O)[O-])cn4C3)nc2)cn1	24 µg/mL (≈ 62.6 µM)	9.6 µM (≈ 3.68 µg/mL)	0.36 µM (≈ 0.138 µg/mL)
O=[N+]([O-])c1cn2c(n1)OC[C@@H](OCc1ccc(-c3ccc(F)nc3)nc1)C2	51 µg/mL (≈ 137 µM)	13 µM (≈ 4.83 µg/mL)	0.37 µM (≈ 0.137 µg/mL)
O=[N+]([O-])c1cn2c(n1)OC[C@@H](OCc1cccc(-c3ccc(C(F)(F)F)cn3)c1)C2	4 µg/mL (≈ 9.52 µM)	4.3 µM (≈ 1.81 µg/mL)	0.32 µM (≈ 0.135 µg/mL)
O=[N+]([O-])c1cn2c(n1)OC[C@@H](OCc1ccc(-c3cccnc3)cc1)C2	29 µg/mL (≈ 82.3 µM)	5.7 µM (≈ 2.01 µg/mL)	0.51 µM (≈ 0.18 µg/mL)
COc1ccc(-c2ccccc2CO[C@@H]2COc3nc([N+](=O)[O-])cn3C2)cn1	48 µg/mL (≈ 126 µM)	8.3 µM (≈ 3.17 µg/mL)	5.2 µM (≈ 1.99 µg/mL)
COc1ccc(-c2cccc(CO[C@@H]3COc4nc([N+](=O)[O-])cn4C3)n2)cn1	14 µg/mL (≈ 36.5 µM)	5.2 µM (≈ 1.99 µg/mL)	0.71 µM (≈ 0.272 µg/mL)
O=[N+]([O-])c1cn2c(n1)OC[C@@H](OCc1ccc(-c3ccc(F)nc3)cn1)C2	43 µg/mL (≈ 116 µM)	19 µM (≈ 7.06 µg/mL)	0.49 µM (≈ 0.182 µg/mL)
O=[N+]([O-])c1cn2c(n1)OC[C@@H](OCc1ccnc(-c3ccc(C(F)(F)F)cc3)c1)C2	2.8 µg/mL (≈ 6.66 µM)	4.4 µM (≈ 1.85 µg/mL)	0.075 µM (≈ 0.0315 µg/mL)
O=[N+]([O-])c1cn2c(n1)OC[C@@H](OCc1ccc(-c3ccc(OC(F)(F)F)cc3F)nc1)C2	2.2 µg/mL (≈ 4.84 µM)	1.9 µM (≈ 0.863 µg/mL)	0.047 µM (≈ 0.0214 µg/mL)

Structure (SMILES)	solubility (physchem)	MIC [1]	MIC [2]
O=[N+]([O-])c1cn2c(n1)OC[C@@H](OCc1cncc(-c3ccc(OC(F)F)cc3)c1)C2	9.2 µg/mL (≈ 22 µM)	5.9 µM (≈ 2.47 µg/mL)	0.53 µM (≈ 0.222 µg/mL)
COc1ccc(-c2ccc(CO[C@@H]3COc4nc([N+](=O)[O-])cn4C3)cc2)nc1	2.5 µg/mL (≈ 6.54 µM)	1.2 µM (≈ 0.459 µg/mL)	0.13 µM (≈ 0.0497 µg/mL)
O=[N+]([O-])c1cn2c(n1)OC[C@@H](OCc1ccc(-c3ccnc(F)c3)cn1)C2	42 µg/mL (≈ 113 µM)	14 µM (≈ 5.2 µg/mL)	1.7 µM (≈ 0.631 µg/mL)
O=[N+]([O-])c1cn2c(n1)OC[C@@H](OCc1cnc(-c3ccc(OC(F)F)cc3)nc1)C2	1.1 µg/mL (≈ 2.62 µM)	4.4 µM (≈ 1.85 µg/mL)	0.13 µM (≈ 0.0545 µg/mL)
O=[N+]([O-])c1cn2c(n1)OC[C@@H](OCc1ccc(-c3ccc(OC(F)(F)F)c(Cl)c3)cn1)C2	0.85 µg/mL (≈ 1.81 µM)	2.4 µM (≈ 1.13 µg/mL)	0.04 µM (≈ 0.0188 µg/mL)
O=[N+]([O-])c1cn2c(n1)OC[C@@H](OCc1cccc(-c3ccc(OC(F)F)cn3)c1)C2	6.7 µg/mL (≈ 16 µM)	6.4 µM (≈ 2.68 µg/mL)	0.21 µM (≈ 0.0879 µg/mL)
COc1ccc(-c2ccc(CO[C@@H]3COc4nc([N+](=O)[O-])cn4C3)cn2)cc1F	2.1 µg/mL (≈ 5.25 µM)	1.9 µM (≈ 0.761 µg/mL)	0.09 µM (≈ 0.036 µg/mL)
O=[N+]([O-])c1cn2c(n1)OC[C@@H](OCc1cccc(-c3ccc(F)nc3)c1)C2	26 µg/mL (≈ 70.2 µM)	5.1 µM (≈ 1.89 µg/mL)	0.37 µM (≈ 0.137 µg/mL)
Nc1ccc(-c2ccc(CO[C@@H]3COc4nc([N+](=O)[O-])cn4C3)cc2)cn1	13 µg/mL (≈ 35.4 µM)	19 µM (≈ 6.98 µg/mL)	2.6 µM (≈ 0.955 µg/mL)
O=[N+]([O-])c1cn2c(n1)OC[C@@H](OCc1ccc(-c3ccc(OCc4ccccc4)nc3)cc1)C2	0.03 µg/mL (≈ 0.0654 µM)	> 32 µM	0.04 µM (≈ 0.0183 µg/mL)
O=[N+]([O-])c1cn2c(n1)OC[C@@H](OCc1cccc(-c3ccc(OCc4ccccc4)nc3)c1)C2	0.15 µg/mL (≈ 0.327 µM)	3 µM (≈ 1.38 µg/mL)	0.07 µM (≈ 0.0321 µg/mL)
O=[N+]([O-])c1cn2c(n1)OC[C@@H](OCc1ccc(-c3ccncc3F)cc1)C2	16 µg/mL (≈ 43.2 µM)	3.9 µM (≈ 1.44 µg/mL)	0.56 µM (≈ 0.207 µg/mL)
O=[N+]([O-])c1cn2c(n1)OC[C@@H](OCc1ccc(-c3ccc(OC(F)F)cc3)nc1)C2	1.6 µg/mL (≈ 3.82 µM)	3.4 µM (≈ 1.42 µg/mL)	0.02 µM (≈ 0.00837 µg/mL)
O=[N+]([O-])c1cn2c(n1)OC[C@@H](OCc1cnc(-c3ccc(C(F)(F)F)nc3)cn1)C2	27 µg/mL (≈ 63.9 µM)	3.7 µM (≈ 1.56 µg/mL)	0.33 µM (≈ 0.139 µg/mL)
O=[N+]([O-])c1cn2c(n1)OC[C@@H](OCc1ccc(-c3ccc(C(F)(F)F)nc3)cn1)C2	12 µg/mL (≈ 28.5 µM)	16 µM (≈ 6.74 µg/mL)	0.24 µM (≈ 0.101 µg/mL)
COc1ccc(-c2cncc(CO[C@@H]3COc4nc([N+](=O)[O-])cn4C3)c2)cn1	31 µg/mL (≈ 80.9 µM)	22 µM (≈ 8.43 µg/mL)	2.8 µM (≈ 1.07 µg/mL)
O=[N+]([O-])c1cn2c(n1)OC[C@@H](OCc1cnc(-c3ccc(OC(F)F)cc3)cn1)C2	5 µg/mL (≈ 11.9 µM)	1.3 µM (≈ 0.545 µg/mL)	0.2 µM (≈ 0.0839 µg/mL)
N#Cc1ccc(-c2ccc(CO[C@@H]3COc4nc([N+](=O)[O-])cn4C3)cc2)nc1	1.7 µg/mL (≈ 4.5 µM)	2.5 µM (≈ 0.943 µg/mL)	0.08 µM (≈ 0.0302 µg/mL)
COc1ccc(-c2ccnc(CO[C@@H]3COc4nc([N+](=O)[O-])cn4C3)c2)cc1F	25 µg/mL (≈ 62.4 µM)	16 µM (≈ 6.41 µg/mL)	2.3 µM (≈ 0.921 µg/mL)
O=[N+]([O-])c1cn2c(n1)OC[C@@H](OCc1ccc(-c3ccc(Cl)c(OC(F)(F)F)c3)cn1)C2	0.8 µg/mL (≈ 1.7 µM)	2.3 µM (≈ 1.08 µg/mL)	0.06 µM (≈ 0.0282 µg/mL)
O=[N+]([O-])c1cn2c(n1)OC[C@@H](OCc1ccc(-c3cccc(F)n3)cn1)C2	41 µg/mL (≈ 110 µM)	20 µM (≈ 7.43 µg/mL)	1.4 µM (≈ 0.52 µg/mL)
O=[N+]([O-])c1cn2c(n1)OC[C@@H](OCc1ccc(-c3cncc(F)c3)cn1)C2	130 µg/mL (≈ 350 µM)	21 µM (≈ 7.8 µg/mL)	2.6 µM (≈ 0.965 µg/mL)
